Test [1] deals with T1, Adenosine receptor A1 (Rattus norvegicus, UniProt P25099).
T1 sequence (P25099 whole entry): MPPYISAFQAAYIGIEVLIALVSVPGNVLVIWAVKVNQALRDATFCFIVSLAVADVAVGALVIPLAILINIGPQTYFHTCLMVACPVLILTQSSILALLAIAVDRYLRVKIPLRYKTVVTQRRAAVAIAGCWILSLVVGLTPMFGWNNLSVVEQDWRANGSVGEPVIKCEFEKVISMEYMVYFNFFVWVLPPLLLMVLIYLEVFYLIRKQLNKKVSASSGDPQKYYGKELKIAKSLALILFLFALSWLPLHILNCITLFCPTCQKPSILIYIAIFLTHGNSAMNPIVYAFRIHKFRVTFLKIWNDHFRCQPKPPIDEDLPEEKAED
Nature of the test: Binding affinity for adenosine A1 receptor was assayed by displacement of [3H]DPCPX from rat cortical membranes. Type of test: cell membranes, Membrane. (In general: Loss of bound radioactivity is the signal in a displacement assay; it reports binding, not function.)

Another test deals with Adenosine receptor A2a (Rattus norvegicus, UniProt P30543). Nature of the test: Binding affinity for adenosine A2A receptor was determined by displacement of [3H]CGS 21680 from rat striatal membranes.
Chain of Adenosine receptor A2a (P30543 whole entry): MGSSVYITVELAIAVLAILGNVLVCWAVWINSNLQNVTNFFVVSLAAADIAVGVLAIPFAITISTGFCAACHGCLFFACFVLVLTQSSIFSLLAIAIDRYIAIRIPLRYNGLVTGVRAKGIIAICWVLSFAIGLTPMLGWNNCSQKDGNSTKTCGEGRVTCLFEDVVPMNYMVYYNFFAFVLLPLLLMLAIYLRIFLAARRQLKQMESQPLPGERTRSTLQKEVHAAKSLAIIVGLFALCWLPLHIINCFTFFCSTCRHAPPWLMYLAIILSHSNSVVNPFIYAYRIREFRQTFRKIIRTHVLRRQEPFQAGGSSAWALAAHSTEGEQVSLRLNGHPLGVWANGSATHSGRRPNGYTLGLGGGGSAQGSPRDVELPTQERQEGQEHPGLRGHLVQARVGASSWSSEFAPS
The target in test [2] is T1, Adenosine receptor A1. Nature of the test: Stimulation of [35S]GTP-gamma-S, binding to rat brain membranes by adenosine A1 receptor activation. Type of test: functional, cell membranes, Membrane. On the technique in general: GTPγS resists hydrolysis and so accumulates on activated G proteins.
The target in test [3] is T2, Adenosine receptor A1 (Rattus norvegicus) (UniProt P25099).
T2 sequence (whole entry): T1 sequence (P25099 whole entry)
Description: Binding affinity for adenosine A1 receptor, was assessed from the ability to displace [3H]DPCPX (without GTP) from rat cortical membranes, activity expressed as KL (affinity for the low-affinity state)

Test [4] concerns the target T1, Adenosine receptor A1.
Test [5] in a line: % of the receptors in the high affinity state.
Test [6] concerns the target T2, Adenosine receptor A1 (Rattus norvegicus). The source holds these as a separate data set.
Description: Binding affinity for adenosine A1 receptor, was assessed from the ability to displace [3H]DPCPX (without GTP) from rat cortical membranes, activity expressed as KH (affinity for the high-affinity state)
Test [7] deals with T1, Adenosine receptor A1. Nature of the test: Binding affinity for adenosine A1 receptor, was assessed from the ability to displace [3H]-DPCPX (without GTP) from rat cortical membranes.
In test [8] the target is T2, Adenosine receptor A1 (Rattus norvegicus). The source holds these as a separate data set.
Test [9] shares this target. Nature of the test: Percent relative intrinsic activity with reference to CCPA.

pEC50, pKi: −log10 of the molar value.

As a reminder, the pKi is −log10 of the Ki, conventionally taken in molar units. The low end stands for a large Ki, the high end for a small Ki. A word on the pEC50: it is −log10 of the EC50, conventionally taken in molar units. A low value points to a high EC50.
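For KH in this document: displacement of [3H]DPCPX binding from rat cortical membranes in the absence of GTP, KH giving affinity for the high-affinity receptor state.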
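For KL in this document: displacement of [3H]DPCPX from rat cortical membranes, assayed without GTP, with KL giving affinity for the low-affinity state of the receptor.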

As for `OC[C@H]1OC(n2cnc3c(NC4CCCCCC4)nc(Cl)nc32)[C@H](O)[C@@H]1O` (some centres not stated), the figures for the pKi on Adenosine receptor A1 [1] and at Adenosine receptor A2a were 7.42 and 5.96, respectively. Also, at Adenosine receptor A1 [2], the pEC50 is 6.37.
As for `OC[C@H]1O[C@@H](n2cnc3c(NC4CCCCCCC4)nc(Cl)nc32)C[C@@H]1O`, the KL in test [3] turned out to be 1.02 µM. The negative-log Ki (pKi) is 5.85 on Adenosine receptor A1 [4] and 6.18 at Adenosine receptor A1 [7]. The molecule also displayed an RHA in test [5] of 14.5%. In addition, in [6], the KH amounted to 23.6 nM. The molecule further registered an RIA in test [8] of 0.
Take `OC[C@H]1O[C@@H](n2cnc3c(NC4CCCC4)ccnc32)[C@H](O)[C@@H]1O`: the pKi is 7.00 on Adenosine receptor A1 [1] and 5.00 on Adenosine receptor A2a. On Adenosine receptor A1 [2], this molecule gave a negative-log EC50 (pEC50) of 6.32.
Consider `OC[C@H]1O[C@@H](n2cnc3c(NC4CCCCC4)nc(Cl)nc32)[C@H](O)[C@@H]1O`, for which the negative-log Ki (pKi) is 7.50 on Adenosine receptor A1 [1] and 6.23 at Adenosine receptor A2a.
`OC[C@H]1O[C@@H](n2cnc3c(NC4CC4)ncnc32)[C@H](O)[C@@H]1O`: the negative-log Ki (pKi) on Adenosine receptor A1 [1] was 7.57; at Adenosine receptor A2a, 6.29. For the same molecule, on Adenosine receptor A1 [2], the negative-log EC50 (pEC50) was 6.15.
On to `OC[C@H]1O[C@@H](n2cnc3c(NC4CCCCCC4)cc(Cl)nc32)[C@@H](O)C1O` (some centres not stated), for which the negative-log Ki (pKi) is 6.61 at Adenosine receptor A1 [1] and 5.31 at Adenosine receptor A2a. The negative logarithm of the EC50 (pEC50) on Adenosine receptor A1 [2] is 5.18.
In the same order, the values of `OC[C@H]1OC(n2cnc3c(NC4CCCCCC4)ccnc32)[C@H](O)[C@@H]1O` (some centres not stated) are 6.44, 5.04 and 5.20.
The molecule `OC[C@H]1O[C@@H](n2cnc3c(NC4CCCCC4)ncnc32)C[C@@H]1O` came in with a KL in test [3] of 7.33 µM. For the same molecule, the negative logarithm of the Ki (pKi) on Adenosine receptor A1 [4] was 4.78; on Adenosine receptor A1 [7], 6.39. Also, the KH in [6] came out at 92.5 nM. Moreover, the negative-log EC50 (pEC50) on Adenosine receptor A1 [2] is 5.02. This molecule also came in with an RIA in test [8] of 40.1.
Molecule `OC[C@H]1O[C@@H](n2cnc3c(NC4CCCCCCC4)ncnc32)C[C@@H]1O` returned a KL in [3] of 4.19 µM. Moreover, the negative-log Ki (pKi) on Adenosine receptor A1 [4] is 5.03; on Adenosine receptor A1 [7], 6.23. The RHA in [5] was determined as 45.9%. The KH in test [6] was 84.9 nM. In test [8], this molecule returned an RIA of 0.
On to `OC[C@H]1O[C@@H](n2cnc3c(NC4CCC4)nc(Cl)nc32)C[C@@H]1O`, for which, in test [3], the KL came out at 1.92 µM. The pKi was 5.44 at Adenosine receptor A1 [4] and 6.61 on Adenosine receptor A1 [7]. In test [6], this molecule came in with a KH of 33.3 nM. Also, the pEC50 at Adenosine receptor A1 [2] is 5.43. The molecule also showed an RIA in test [8] of 19.5.
For the molecule `OC[C@H]1OC(n2cnc3c(NC4CCCCCCC4)cc(Cl)nc32)[C@H](O)[C@@H]1O` (some centres not stated), the pKi on Adenosine receptor A1 [1] was 6.23; on Adenosine receptor A2a, 4.70.
Regarding `OC[C@H]1O[C@@H](n2cnc3c(NC4CCCCCC4)nc(Cl)nc32)C[C@@H]1O`, in test [3], the KL is 0.752 µM. The figures for the pKi at Adenosine receptor A1 [4] and at Adenosine receptor A1 [7] were 5.96 and 6.43, respectively. In addition, the KH in test [6] was determined as 30.7 nM. Besides, the RIA in [8] stood at 0.
Consider `OC[C@H]1O[C@@H](n2cnc3c(NC4CCC4)cc(Cl)nc32)[C@H](O)[C@@H]1O`, for which the figures for the negative-log Ki (pKi) at Adenosine receptor A1 [1] and at Adenosine receptor A2a were 7.39 and 5.51, respectively.
For `OC[C@H]1O[C@@H](n2cnc3c(NC4CC4)cc(Cl)nc32)[C@H](O)[C@@H]1O`, the negative-log Ki (pKi) was 6.82 on Adenosine receptor A1 [1] and 5.02 at Adenosine receptor A2a. This molecule also had a negative-log EC50 (pEC50) at Adenosine receptor A1 [2] of 6.15.
In test [3], `OC[C@H]1O[C@@H](n2cnc3c(NC4CCCC4)ncnc32)C[C@@H]1O` gave a KL of 3.52 µM. In addition, the negative logarithm of the Ki (pKi) is 4.99 on Adenosine receptor A1 [4] and 6.67 at Adenosine receptor A1 [7]. Also, the KH in [6] came out at 39.3 nM. Further, the pEC50 on Adenosine receptor A1 [2] is 5.24. In test [8], this molecule had an RIA of 42.1.
Turning to `OC[C@H]1O[C@@H](n2cnc3c(NC4CCCCC4)ccnc32)[C@H](O)[C@@H]1O`, the values for the pKi at Adenosine receptor A1 [1] and on Adenosine receptor A2a were 6.77 and 5.29, respectively.
For the molecule `OC[C@H]1O[C@@H](n2cnc3c(NC4CCC4)ncnc32)C[C@@H]1O`, the KL in test [3] came to 8.3 µM. In addition, the pKi on Adenosine receptor A1 [4] is 4.63; at Adenosine receptor A1 [7], 6.28. The KH in test [6] worked out at 121 nM. This molecule had a pEC50 on Adenosine receptor A1 [2] of 5.29. In test [8], this molecule came in with an RIA of 33.8.
Consider `OC[C@H]1O[C@@H](n2cnc3c(NC4CCCCCC4)ncnc32)[C@H](O)[C@@H]1O`, for which the results for the negative logarithm of the Ki (pKi) at Adenosine receptor A1 [1] and at Adenosine receptor A2a were 7.71 and 5.50, respectively. The molecule further gave a pEC50 on Adenosine receptor A1 [2] of 7.06.
On to `OC[C@H]1O[C@@H](n2cnc3c(NC4CCC4)ncnc32)[C@H](O)[C@@H]1O`, for which the pKi at Adenosine receptor A1 [1] is 8.41; on Adenosine receptor A2a, 6.38.
On Adenosine receptor A2a, `OC[C@H]1O[C@@H](n2cnc3c(NC4CC4)nc(Cl)nc32)[C@H](O)[C@@H]1O` had a pKi of 5.69. At Adenosine receptor A1 [2], this molecule gave a pEC50 of 7.24.
In turn, `OC[C@H]1O[C@@H](n2cnc3c(NC4CCCC4)nc(Cl)nc32)C[C@@H]1O` registered a KL in test [3] of 0.8 µM. Also, the negative logarithm of the Ki (pKi) is 5.88 on Adenosine receptor A1 [4] and 6.81 on Adenosine receptor A1 [7]. The KH in [6] was found to be 18.5 nM. This molecule also gave a negative-log EC50 (pEC50) on Adenosine receptor A1 [2] of 5.81. Further, the RIA in test [8] came out at 8.3.
As to `OC[C@H]1O[C@@H](n2cnc3c(NC4CCCCCC4)ncnc32)C[C@@H]1O`, the KL in [3] was determined as 7.41 µM. Besides, the negative-log Ki (pKi) on Adenosine receptor A1 [4] was 4.69; at Adenosine receptor A1 [7], 6.11. The same molecule gave a KH in test [6] of 124 nM. In addition, the negative-log EC50 (pEC50) on Adenosine receptor A1 [2] is 4.86. In [8], this molecule registered an RIA of 24.9.
Regarding `OC[C@H]1OC(n2cnc3c(NC4CCCCCCC4)nc(Cl)nc32)[C@H](O)[C@@H]1O` (some centres not stated), the pKi on Adenosine receptor A1 [1] is 6.91; on Adenosine receptor A2a, 5.37.
Consider `OC[C@H]1O[C@@H](n2cnc3c(NC4CC4)ccnc32)[C@H](O)[C@@H]1O`, for which the negative-log Ki (pKi) on Adenosine receptor A1 [1] is 6.49; on Adenosine receptor A2a, 4.79. The pEC50 on Adenosine receptor A1 [2] is 5.82.
For the molecule `OC[C@H]1O[C@@H](n2cnc3c(NC4CCCCCCC4)ncnc32)[C@H](O)[C@@H]1O`, the values for the pKi at Adenosine receptor A1 [1] and on Adenosine receptor A2a were 7.27 and 5.38, respectively.
`OC[C@H]1O[C@@H](n2cnc3c(NC4CCCC4)ncnc32)[C@H](O)[C@@H]1O` [N6-CYCLOPENTYLADENOSINE]: the pKi at Adenosine receptor A2a is 5.47.
As for `OC[C@H]1OC(n2cnc3c(NC4CCCCCCC4)ccnc32)[C@H](O)[C@@H]1O` (some centres not stated), the pKi was 6.27 on Adenosine receptor A1 [1] and 4.86 at Adenosine receptor A2a.
Consider `OC[C@H]1O[C@@H](n2cnc3c(NC4CC4)nc(Cl)nc32)C[C@@H]1O`, for which, in test [3], the KL turned out to be 6.03 µM. Further, the pKi on Adenosine receptor A1 [4] is 4.84; at Adenosine receptor A1 [7] it was 6.14. For the same molecule, the RIA in test [9] was 20.8%. In addition, the KH in test [6] was found to be 115 nM. At Adenosine receptor A1 [2], this molecule gave a negative logarithm of the EC50 (pEC50) of 5.21.
Molecule `OC[C@H]1O[C@@H](n2cnc3c(NC4CC4)ncnc32)C[C@@H]1O` had an RIA in [8] of 0.
On to `OC[C@H]1O[C@@H](n2cnc3c(NC4CCCCC4)cc(Cl)nc32)[C@H](O)[C@@H]1O`, for which the negative-log Ki (pKi) at Adenosine receptor A1 [1] was 6.57; at Adenosine receptor A2a it was 5.28.
For `OC[C@H]1O[C@@H](n2cnc3c(NC4CCC4)ccnc32)[C@H](O)[C@@H]1O`, in that order: 6.96 and 5.18.
As to `OC[C@H]1O[C@@H](n2cnc3c(NC4CCC4)nc(Cl)nc32)[C@H](O)[C@@H]1O`, the figures for the negative-log Ki (pKi) at Adenosine receptor A1 [1] and at Adenosine receptor A2a were 8.28 and 6.34, respectively.
`OC[C@H]1O[C@@H](n2cnc3c(NC4CCCCC4)nc(Cl)nc32)C[C@@H]1O`: the KL in [3] came to 1.59 µM. In addition, the negative-log Ki (pKi) on Adenosine receptor A1 [4] is 5.59; at Adenosine receptor A1 [7] it was 6.30. In test [6], this molecule registered a KH of 61.7 nM. The molecule further returned an RIA in test [8] of 0.
With `OC[C@H]1O[C@@H](n2cnc3c(NC4CCCC4)cc(Cl)nc32)[C@H](O)[C@@H]1O`, the figures for the pKi at Adenosine receptor A1 [1] and at Adenosine receptor A2a were 7.31 and 5.55, respectively. For the same molecule, the pEC50 at Adenosine receptor A1 [2] was 6.39.

For the origin of these results see ChEMBL document CHEMBL1133444, “N-cycloalkyl derivatives of adenosine and 1-deazaadenosine as agonists and partial agonists of the A(1) adenosine receptor” (J Med Chem, 2000).
